Measurements from ChEMBL document CHEMBL2046276, “Molecular cloning, characterization, and inhibition studies of a β-carbonic anhydrase from Malassezia globosa, a potential antidandruff target” (J Med Chem, 2012).
≈ marks a conversion by molar mass, not a printed value. Calls of active or inactive are those of the source. The calls are words filed in the database; no cut-off is given here.

Tests used:
Carbonic anhydrase = target: T1, Carbonic anhydrase (Candida albicans (strain SC5314 / ATCC MYA-2876) (Yeast), UniProt Q5AJ71)
T1 sequence (Q5AJ71 whole entry): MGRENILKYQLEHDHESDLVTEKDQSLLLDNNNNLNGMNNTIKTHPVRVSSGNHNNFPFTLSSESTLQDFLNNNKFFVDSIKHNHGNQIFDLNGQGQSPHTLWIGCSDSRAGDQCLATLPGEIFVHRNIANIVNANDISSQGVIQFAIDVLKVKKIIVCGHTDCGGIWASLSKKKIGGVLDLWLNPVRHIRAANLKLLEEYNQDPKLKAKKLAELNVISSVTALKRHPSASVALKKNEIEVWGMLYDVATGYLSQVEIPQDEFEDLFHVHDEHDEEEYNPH

Malassezia pachydermatis [1] = assay: microbe, parasite or virus in culture; details: CBS 6536, 168 h
Malassezia dermatis = assay: microbe, parasite or virus in culture; details: CBS 9145, 168 h
Malassezia furfur = assay: microbe, parasite or virus in culture; details: CBS 9569, 168 h
[2] = microbe, parasite or virus in culture; details: Malassezia globosa, CBS 7966, 168 h
Malassezia pachydermatis [3] = assay: Antimicrobial activity against Malassezia pachydermatis infected in CD-1 mouse model of dandruff assessed as fungal hyphae fragmentation at 5% cream administered once daily for 6 days measured daily for 20 days; type: functional
Malassezia pachydermatis [4] = assay: Antimicrobial activity against Malassezia pachydermatis infected in CD-1 mouse model of dandruff assessed as improvement in skin appearance at 5% cream administered once daily for 6 days measured daily for 20 days; type: functional
Malassezia pachydermatis [5] = assay: Antimicrobial activity against Malassezia pachydermatis infected in CD-1 mouse model of dandruff assessed as improvement in skin appearance at 2% cream administered once daily for 6 days measured daily for 20 days; type: functional
Malassezia pachydermatis [6] = assay: Antimicrobial activity against Malassezia pachydermatis infected in CD-1 mouse model of dandruff assessed as fungal hyphae fragmentation at 2% cream administered once daily for 6 days measured daily for 20 days; type: functional

| SMILES | Ki (Carbonic anhydrase) | MIC (Malassezia pachydermatis [1]) | MIC (Malassezia dermatis) | MIC (Malassezia furfur) | MIC [2] | Activity (Malassezia pachydermatis [3]) | Activity (Malassezia pachydermatis [4]) | Activity (Malassezia pachydermatis [5]) | Activity (Malassezia pachydermatis [6]) |
| --- | --- | --- | --- | --- | --- | --- | --- | --- | --- |
| NS(=O)(=O)Nc1ccc(Br)cc1 | 763 nM | – | – | – | – | – | – | – | – |
| NS(=O)(=O)c1ccc(Br)cc1 | 894 nM | 320 µg/mL (≈ 1360 µM) | 320 µg/mL (≈ 1360 µM) | 320 µg/mL (≈ 1360 µM) | 320 µg/mL (≈ 1360 µM) | – | – | – | – |
| Nc1cc(Cl)c(S(N)(=O)=O)cc1S(N)(=O)=O | – | 640 µg/mL (≈ 2240 µM) | 640 µg/mL (≈ 2240 µM) | 640 µg/mL (≈ 2240 µM) | 640 µg/mL (≈ 2240 µM) | – | – | – | – |
| NS(=O)(=O)Oc1ccc(Br)cc1 | 715 nM | – | – | – | – | – | – | – | – |
| Nc1ccccc1S(N)(=O)=O | – | > 640 µg/mL | 640 µg/mL (≈ 3720 µM) | 640 µg/mL (≈ 3720 µM) | 640 µg/mL (≈ 3720 µM) | – | – | – | – |
| NCCc1ccc(S(N)(=O)=O)cc1 | – | 640 µg/mL (≈ 3200 µM) | 640 µg/mL (≈ 3200 µM) | 640 µg/mL (≈ 3200 µM) | 320 µg/mL (≈ 1600 µM) | Active | 67% | – | – |
| CC(=O)N1CCN(c2ccc(OCC3COC(Cn4ccnc4)(c4ccc(Cl)cc4Cl)O3)cc2)CC1 (configuration not stated) | – | – | – | – | – | – | – | Active | Active |
| Nc1cc(C(F)(F)F)c(S(N)(=O)=O)cc1S(N)(=O)=O [2,4-DISULFAMYLTRIFLUOROMETHYLANILINE] | – | > 640 µg/mL | > 640 µg/mL | > 640 µg/mL | 320 µg/mL (≈ 1000 µM) | – | – | – | – |
| NS(=O)(=O)c1ccccc1 [BENZENESULFONAMIDE] | 2360 nM | 160 µg/mL (≈ 1020 µM) | > 640 µg/mL | 160 µg/mL (≈ 1020 µM) | 320 µg/mL (≈ 2040 µM) | – | – | – | – |
| NS(=O)(=O)c1ccc(C(=O)O)cc1 [CARZENIDE] | – | 640 µg/mL (≈ 3180 µM) | > 640 µg/mL | > 640 µg/mL | 640 µg/mL (≈ 3180 µM) | – | – | – | – |
| NS(=O)(=O)c1cc(Cl)c(Cl)c(S(N)(=O)=O)c1 [DICHLORPHENAMIDE] | – | > 640 µg/mL | > 640 µg/mL | > 640 µg/mL | 320 µg/mL (≈ 1050 µM) | – | – | – | – |
| NCc1ccc(S(N)(=O)=O)cc1 [MAFENIDE] | – | 160 µg/mL (≈ 859 µM) | 160 µg/mL (≈ 859 µM) | 320 µg/mL (≈ 1720 µM) | 160 µg/mL (≈ 859 µM) | – | – | – | – |
| Cc1ccc(S(N)(=O)=O)cc1 [P-TOLUENESULFONAMIDE] | – | – | – | 640 µg/mL (≈ 3740 µM) | 160 µg/mL (≈ 934 µM) | – | – | – | – |
| NS(=O)(=O)Oc1ccccc1 [PHENYLSULFAMATE] | 1970 nM | – | – | – | – | – | – | – | – |
| NS(=O)(=O)Nc1ccccc1 [PHENYLSULFAMIDE] | 1910 nM | – | – | – | – | – | – | – | – |
| Nc1ccc(S(N)(=O)=O)cc1 [SULFANILAMIDE] | – | 10 µg/mL (≈ 58.1 µM) | 160 µg/mL (≈ 929 µM) | 80 µg/mL (≈ 465 µM) | 80 µg/mL (≈ 465 µM) | – | – | – | – |
